Results on five compounds are retold here after ChEMBL document CHEMBL1201862, “PubChem BioAssay data set” (2004).

Test [1] addresses Chaperone protein dnaK (Escherichia coli, UniProt C3TRK2). The experiment in a line: DnaK beta-domain binding affinity, SAR follow-up, orthogonal assay for DnaK modulator project, biophysical, isothermal titration calorimetry, full-length DnaK (AID 1495).
Test [2] concerns the target Bcl-2-like protein 1 (Homo sapiens, UniProt Q07817). Put plainly: BCL-XL inhibitors, dose response, selectivity assay for MCL1 inhibitor project, biochemical, fluorescence polarization, 1536-well (AID 2218).
Test [3] deals with Aspartyl aminopeptidase (Plasmodium falciparum 3D7, UniProt Q8I2J3).
Test [4] addresses Procathepsin L (Homo sapiens, UniProt P07711).
Test [5] addresses Induced myeloid leukemia cell differentiation protein Mcl-1 (Homo sapiens, UniProt Q07820). Put plainly: MCL1-BIM BH3 interaction inhibitors, dose response, biochemical, fluorescence polarization, BIM-BH3 peptide, 1536-well (AID 2217).
In test [6] the target is Melanin-concentrating hormone receptor 1 (Homo sapiens, UniProt Q99705). Put plainly: Fluorescence-based counterscreen for antagonists of the G-protein coupled receptor 7 (GPR7): cell-based high throughput dose response assay to identify antagonists of the melanin-concentrating hormone receptor 1 (MCHR1). It is filed as functional.
For test [7], the target named is Voltage-gated N-type calcium channel alpha-1B subunit/Amyloid beta A4 precursor protein-binding family A member 1 (Homo sapiens, UniProt Q00975+Q02410). The experiment in a line: disruptors of Mint-PDZ/N-type channel peptide interaction – biochemical, HTRF, set 2, SAR follow-up (AID 434980). It is filed as functional.
A short description of test [8]: inhibitors of firefly luciferase expression or activity, dose response, H4 neuroglioma cells, luminescence (AID 1990). In kind it is functional, cell-based.
Test [9] deals with ATP-dependent molecular chaperone HSP82 (Candida albicans (strain WO-1) (Yeast), UniProt C4YTQ8). The experiment in a line: loss of DOC-induced GRE-beta-galactosidase reporter signal, dose response, Hsp90 inhibitor project, S. cerevisiae, luminescence (AID 2400).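 Further: beta-galactosidase luminescence from glucocorticoid response element reporter as proxy for Hsp90 function; inhibitor potency where signal loss means Hsp90 inhibition.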 It is filed as functional, cell-based.
Test [10] has as its system HEK293. The experiment in a line: cells. Conditions: Homo sapiens. It is filed as functional, cell-based.
Test [11] in a line: NIH-3T3 fibroblast cytotoxicity, dose response, cytotoxicity control, cell-based, fluorescence, Alamar Blue, secondary assay (AID 2327).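 Further: NIH-3T3 mouse fibroblasts cultured with fluconazole at 8 µg/mL.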 In kind it is functional.
Test [12] is described as follows: luciferase reporter signal reduction – luminescence, H4-C neuroglioblastoma cells, dose response (AID 2458).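 Further: H4 neuroglioblastoma cells stably carrying a luciferase reporter gene fusion.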 It is filed as functional, cell-based.
In test [13] the test system is HEK293. The experiment in a line: cells. In kind it is functional, cell-based. Conditions: Homo sapiens. This is another data set of the same source.
The nature of test [14]: inhibitors of SNCA 5'UTR-driven translation, confirmation, luminescence, H4 neuroglioblastoma cells, dose confirmation (AID 2454).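 Further: H4 neuroglioblastoma cells carrying an alpha-synuclein 5'UTR luciferase reporter; potency for inhibition of the luciferase signal.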 It is filed as functional, cell-based.
Test [15] concerns the target T1, Serine/threonine-protein phosphatase (Candida dubliniensis (strain CD36 / CBS 7987 / NCPF 3949 / NRRLY-17841) (Yeast), UniProt B9W6M3).
T1 sequence (B9W6M3 whole entry): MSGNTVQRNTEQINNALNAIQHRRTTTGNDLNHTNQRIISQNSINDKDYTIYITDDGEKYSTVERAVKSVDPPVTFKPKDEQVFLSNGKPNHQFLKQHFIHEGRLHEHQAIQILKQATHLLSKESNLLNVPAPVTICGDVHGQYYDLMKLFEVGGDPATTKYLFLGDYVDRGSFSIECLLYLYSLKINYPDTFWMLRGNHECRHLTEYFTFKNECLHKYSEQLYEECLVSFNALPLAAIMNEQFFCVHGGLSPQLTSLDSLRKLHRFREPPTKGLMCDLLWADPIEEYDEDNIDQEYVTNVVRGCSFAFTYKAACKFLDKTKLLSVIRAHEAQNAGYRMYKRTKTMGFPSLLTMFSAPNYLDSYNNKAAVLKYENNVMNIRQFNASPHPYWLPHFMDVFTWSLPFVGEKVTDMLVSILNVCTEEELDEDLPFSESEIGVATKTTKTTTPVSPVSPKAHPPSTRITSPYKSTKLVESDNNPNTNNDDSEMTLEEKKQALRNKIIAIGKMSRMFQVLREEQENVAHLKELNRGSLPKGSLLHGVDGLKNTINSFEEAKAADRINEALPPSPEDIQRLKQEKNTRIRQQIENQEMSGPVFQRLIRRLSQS
Put plainly: calcineurin pathway inhibitors in yeast reporter, dose response, S. cerevisiae, CDRE-lacZ, luminescence, secondary (AID 2388).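 Further: yeast reporter cells carrying a calcineurin-responsive lacZ construct stimulated with calcium chloride; luminescent beta-galactosidase reporter signal in whole cells rather than isolated phosphatase activity; potency for inhibition where a drop in reporter signal means calcineurin blockade.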 In kind it is functional, cell-based.

For test [16], the system named is HEK293. Put plainly: NOD2 signaling inhibitors in MDP-stimulated cells, cell-based, uHTS, luminescence (AID 2001). In kind it is functional. To be noted: Homo sapiens.
A short description of test [17]: C. albicans growth with fluconazole, confirmation, fluorescence, retest (AID 2467). In kind it is functional, cell-based.
Test [18] is described as follows: Luminescence Cell-Based Dose Response HTS to Identify Inhibitors of 5'UTR Stem-Loop Driven Prion Protein mRNA Translation in H4 Neuroglioblastoma Cells. [Related pubchem assays: 1827 (Project Summary), 1813 (Primary HTS)]. It is filed as functional.
For test [19], the target named is Nucleotide-binding oligomerization domain-containing protein 2 (Homo sapiens, UniProt Q9HC29). Put plainly: NOD2 signaling inhibitors, cell-based, luminescence, uHTS, HEK293 (AID 1566). In kind it is functional.
Test [20] has as its system HEK293. Put plainly: NOD1 signaling inhibitors, primary screen, cell-based, luminescence, uHTS (AID 1578). In kind it is functional. Conditions: Homo sapiens.
Test [21] relates to HEK293. The experiment in a line: cells. It is filed as functional, cell-based. Conditions: Homo sapiens. This is another data set of the same source.
Test [22] can be described thus: inhibitors of SNCA 5'UTR-driven reporter translation, confirmation, H4 neuroglioma cells, luminescence (AID 1988). It is filed as functional, cell-based.
Test [23] has as its system BJ. Put plainly: cytotoxicity toward BJ-TERT fibroblasts, dose response, cell-based, RAS-independent, luminescence (AID 1933). To be noted: Homo sapiens. In kind it is functional.
The nature of test [24]: cytotoxicity toward DRD oncogenic fibroblasts, dose response, cell-based, non-viral oncogenic, luminescence (AID 1934). It is filed as functional. Conditions: Homo sapiens.
For test [25], the system named is BJ. Put plainly: cytotoxicity toward Ras-transformed BJeLR fibroblasts, dose response, cell-based, alamar blue fluorescence, cherrypicked samples (AID 2631).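 Further: confirmatory dose-response assay in RAS-dependent BJ fibroblasts engineered with TERT, LT and ST, with cytotoxicity read by fluorescence.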 It is filed as functional. Conditions: Homo sapiens.
Test [26] relates to BJ. Put plainly: cells. It is filed as functional, cell-based. To be noted: Homo sapiens.
A short description of test [27]: cells. It is filed as functional, cell-based.
Test [28] deals with BJ. Put plainly: cytotoxicity toward BJ-TERT-LT-ST fibroblasts, dose response, cell-based, RAS-independent, luminescence (AID 1935).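 Further: BJ fibroblasts immortalized with TERT plus LT and ST oncogenes.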 In kind it is functional. Conditions: Homo sapiens.

Structures are written as SMILES. The source made the active and inactive calls. For most assays here, no stated cut-off is given here; in the data, actives have a measured EC50 and inactives only a lower limit.

Chain of Aspartyl aminopeptidase (Q8I2J3 whole entry): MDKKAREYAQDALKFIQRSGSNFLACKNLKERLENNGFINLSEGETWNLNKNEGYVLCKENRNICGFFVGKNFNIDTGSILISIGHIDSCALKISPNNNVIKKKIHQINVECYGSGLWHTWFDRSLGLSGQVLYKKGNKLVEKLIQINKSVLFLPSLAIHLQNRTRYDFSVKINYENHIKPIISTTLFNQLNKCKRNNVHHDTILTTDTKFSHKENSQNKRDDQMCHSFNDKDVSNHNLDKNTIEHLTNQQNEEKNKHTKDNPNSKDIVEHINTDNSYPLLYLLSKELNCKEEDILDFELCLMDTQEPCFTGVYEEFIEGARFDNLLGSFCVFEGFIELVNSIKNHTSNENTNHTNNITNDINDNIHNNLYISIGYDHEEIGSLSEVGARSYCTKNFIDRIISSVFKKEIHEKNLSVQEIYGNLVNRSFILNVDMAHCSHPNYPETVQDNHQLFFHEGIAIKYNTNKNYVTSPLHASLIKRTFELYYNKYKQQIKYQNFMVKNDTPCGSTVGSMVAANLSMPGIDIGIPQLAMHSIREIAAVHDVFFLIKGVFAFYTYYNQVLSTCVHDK
Chain of Bcl-2-like protein 1 (Q07817 whole entry): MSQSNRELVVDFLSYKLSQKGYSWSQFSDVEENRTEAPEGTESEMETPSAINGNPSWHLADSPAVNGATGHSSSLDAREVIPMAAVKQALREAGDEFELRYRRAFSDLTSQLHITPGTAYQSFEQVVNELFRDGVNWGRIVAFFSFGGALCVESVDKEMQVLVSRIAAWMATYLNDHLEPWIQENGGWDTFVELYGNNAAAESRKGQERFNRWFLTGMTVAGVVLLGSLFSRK
Chain of ATP-dependent molecular chaperone HSP82 (C4YTQ8 whole entry): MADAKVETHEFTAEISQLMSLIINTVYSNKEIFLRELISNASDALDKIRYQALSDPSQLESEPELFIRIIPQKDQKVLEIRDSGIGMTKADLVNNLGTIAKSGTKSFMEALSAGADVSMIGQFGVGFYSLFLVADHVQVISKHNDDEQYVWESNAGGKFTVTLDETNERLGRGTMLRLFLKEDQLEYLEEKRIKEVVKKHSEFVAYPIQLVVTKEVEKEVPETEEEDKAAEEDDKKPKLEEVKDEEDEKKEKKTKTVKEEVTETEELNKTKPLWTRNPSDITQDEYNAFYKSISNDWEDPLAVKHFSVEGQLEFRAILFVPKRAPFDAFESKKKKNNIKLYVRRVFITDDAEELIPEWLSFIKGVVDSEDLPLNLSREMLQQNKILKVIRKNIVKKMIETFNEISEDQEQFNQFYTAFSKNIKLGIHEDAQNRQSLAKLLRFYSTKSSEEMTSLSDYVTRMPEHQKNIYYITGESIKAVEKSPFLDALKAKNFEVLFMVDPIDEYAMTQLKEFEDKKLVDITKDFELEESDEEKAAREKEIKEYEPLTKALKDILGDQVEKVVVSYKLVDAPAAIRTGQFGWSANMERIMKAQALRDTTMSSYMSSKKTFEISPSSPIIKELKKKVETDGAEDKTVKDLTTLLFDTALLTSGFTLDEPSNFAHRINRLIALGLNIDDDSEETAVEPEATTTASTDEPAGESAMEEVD
Chain of Procathepsin L (P07711 whole entry): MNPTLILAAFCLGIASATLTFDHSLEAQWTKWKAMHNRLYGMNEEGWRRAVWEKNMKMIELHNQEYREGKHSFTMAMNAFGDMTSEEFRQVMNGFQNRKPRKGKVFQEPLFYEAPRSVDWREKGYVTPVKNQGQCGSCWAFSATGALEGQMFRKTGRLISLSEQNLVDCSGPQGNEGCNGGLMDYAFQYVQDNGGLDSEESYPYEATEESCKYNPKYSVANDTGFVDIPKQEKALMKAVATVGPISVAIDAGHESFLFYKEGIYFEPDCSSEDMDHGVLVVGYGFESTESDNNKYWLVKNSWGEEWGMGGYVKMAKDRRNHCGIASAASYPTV
Chain of Induced myeloid leukemia cell differentiation protein Mcl-1 (Q07820 whole entry): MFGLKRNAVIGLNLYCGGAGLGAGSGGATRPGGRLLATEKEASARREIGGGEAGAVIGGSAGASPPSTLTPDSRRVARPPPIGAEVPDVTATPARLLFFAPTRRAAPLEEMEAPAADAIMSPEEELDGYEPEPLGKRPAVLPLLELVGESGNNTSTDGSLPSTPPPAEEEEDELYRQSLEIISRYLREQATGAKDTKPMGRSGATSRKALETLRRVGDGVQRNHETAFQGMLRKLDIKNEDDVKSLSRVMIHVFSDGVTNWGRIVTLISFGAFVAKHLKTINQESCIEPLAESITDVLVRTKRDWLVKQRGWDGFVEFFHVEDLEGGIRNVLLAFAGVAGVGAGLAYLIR
Chain of Chaperone protein dnaK (C3TRK2 whole entry): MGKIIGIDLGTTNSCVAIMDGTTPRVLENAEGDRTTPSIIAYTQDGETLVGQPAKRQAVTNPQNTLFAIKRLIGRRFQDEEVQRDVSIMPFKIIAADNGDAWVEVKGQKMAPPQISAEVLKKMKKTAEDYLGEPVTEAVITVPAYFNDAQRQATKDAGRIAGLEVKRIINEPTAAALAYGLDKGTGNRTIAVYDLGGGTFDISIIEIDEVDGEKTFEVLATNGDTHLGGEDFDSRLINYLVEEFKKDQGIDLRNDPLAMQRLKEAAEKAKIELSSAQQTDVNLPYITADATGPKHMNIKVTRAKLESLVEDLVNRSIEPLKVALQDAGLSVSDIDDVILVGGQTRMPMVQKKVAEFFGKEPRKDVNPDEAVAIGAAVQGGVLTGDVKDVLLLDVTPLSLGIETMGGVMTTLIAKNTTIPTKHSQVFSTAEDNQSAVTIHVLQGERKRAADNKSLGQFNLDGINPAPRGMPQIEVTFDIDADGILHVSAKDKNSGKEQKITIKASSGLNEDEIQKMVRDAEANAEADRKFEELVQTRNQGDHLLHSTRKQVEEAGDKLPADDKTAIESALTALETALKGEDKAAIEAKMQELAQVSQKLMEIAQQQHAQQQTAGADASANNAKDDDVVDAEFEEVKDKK
Chain of Nucleotide-binding oligomerization domain-containing protein 2 (Q9HC29 whole entry, the tested form may be a part): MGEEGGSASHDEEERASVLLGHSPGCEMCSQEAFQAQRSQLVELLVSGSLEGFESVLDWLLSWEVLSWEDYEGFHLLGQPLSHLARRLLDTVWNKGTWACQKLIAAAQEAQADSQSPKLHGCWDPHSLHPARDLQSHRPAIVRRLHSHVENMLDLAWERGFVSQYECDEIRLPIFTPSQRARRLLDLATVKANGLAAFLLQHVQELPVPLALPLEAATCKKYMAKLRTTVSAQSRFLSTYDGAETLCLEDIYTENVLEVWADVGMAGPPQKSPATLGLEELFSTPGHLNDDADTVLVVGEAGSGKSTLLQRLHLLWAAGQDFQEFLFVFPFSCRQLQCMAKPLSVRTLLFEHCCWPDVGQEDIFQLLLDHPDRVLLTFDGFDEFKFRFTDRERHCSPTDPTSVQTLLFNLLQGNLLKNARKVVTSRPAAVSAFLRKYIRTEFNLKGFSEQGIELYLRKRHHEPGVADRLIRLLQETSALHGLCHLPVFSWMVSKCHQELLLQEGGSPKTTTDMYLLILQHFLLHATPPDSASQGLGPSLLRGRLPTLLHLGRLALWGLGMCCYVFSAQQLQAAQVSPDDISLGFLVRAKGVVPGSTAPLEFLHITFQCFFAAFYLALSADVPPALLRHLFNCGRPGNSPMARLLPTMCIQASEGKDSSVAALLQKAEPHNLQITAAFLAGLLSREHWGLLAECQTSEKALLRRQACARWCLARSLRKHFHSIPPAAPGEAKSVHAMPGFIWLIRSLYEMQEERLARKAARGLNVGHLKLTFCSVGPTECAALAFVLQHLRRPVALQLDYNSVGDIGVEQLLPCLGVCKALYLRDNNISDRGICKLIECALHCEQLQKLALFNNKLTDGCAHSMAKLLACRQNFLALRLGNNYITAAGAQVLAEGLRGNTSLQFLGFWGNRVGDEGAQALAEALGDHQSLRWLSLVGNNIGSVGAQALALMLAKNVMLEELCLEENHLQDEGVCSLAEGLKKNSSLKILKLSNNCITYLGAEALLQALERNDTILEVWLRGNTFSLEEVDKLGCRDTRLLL
Chain of Melanin-concentrating hormone receptor 1 (Q99705 whole entry): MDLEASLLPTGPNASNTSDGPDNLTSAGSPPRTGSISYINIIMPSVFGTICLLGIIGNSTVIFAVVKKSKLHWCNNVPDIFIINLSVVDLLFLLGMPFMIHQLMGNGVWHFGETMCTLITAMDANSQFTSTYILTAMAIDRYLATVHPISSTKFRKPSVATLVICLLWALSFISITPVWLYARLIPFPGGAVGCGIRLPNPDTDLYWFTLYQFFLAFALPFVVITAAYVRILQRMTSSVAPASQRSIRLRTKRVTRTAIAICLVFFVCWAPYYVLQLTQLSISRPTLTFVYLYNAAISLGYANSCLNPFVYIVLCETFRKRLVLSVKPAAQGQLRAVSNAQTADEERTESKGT

Take `O=C(NCc1cccc2ccccc12)c1cccs1`: the Kd in test [1] is 1.7 µM (active).

As to `CC(C)n1c(SCC(=O)Nc2nncs2)nnc1-c1ccco1`, the concentration for half-maximal inhibition (IC50) in test [2] is > 109 µM (not active); in [3] it was 4.68 µM (active); in test [4], > 59.6 µM (not active); in [5] it was 18.1 µM (not active).

Turning to `CCN1CCN(C(=O)c2ccc3c(c2)N(Cc2ccc(C)cc2)CCS3)CC1`, the IC50 in test [6] was > 14.6 µM (not active).

For the compound `O=C(c1cc(-c2ccco2)nc2ccccc12)N1CCC(c2ccccc2)CC1`, in test [7], the IC50 was > 56.8 µM (inactive).

Take `COc1ccc(-c2nnc(NC(=O)c3ccc(S(=O)(=O)N4CCc5ccccc5C4)cc3)o2)cc1`: the concentration for a half-maximal effect (EC50) in [8] was < 100 nM (active); in [9] it was > 150 µM (inactive); in [11] it was > 150 µM (inactive); in test [12], > 12 µM (not active); in test [14], > 12 µM (not active); in [15] it was > 180 µM (inactive). The EC50 in test [17] was 256 nM (active); in test [18], < 100 nM (active); in test [19] it was > 20 µM (inactive); in [20], > 20 µM (inactive); in test [22] it was 139 nM (active); in [23], 92.6 µM (active). The 50% effective concentration (EC50) in [24] was 90.3 µM (active); in [25] it was 9.02 µM (active); in [26], 132 µM (inconclusive); in test [27], > 12 µM (not active); in [28] it was > 150 µM (inconclusive). The IC50 in test [10] was > 20 µM (inactive); in test [13], > 20 µM (inactive); in test [16], 19.6 µM (inactive); in test [21], > 20 µM (inactive).
